Assays:
[1] = target: Norepinephrine transporter (Rattus norvegicus, UniProt Q9WTR4); assay: Inhibitory activity against Norepinephrine transporter using 0.5 nM [3H]-radioligand
[2] = target: Sodium-dependent serotonin transporter (Rattus norvegicus, UniProt P31652); assay: Inhibitory activity against Serotonin transporter using 0.2 nM [3H]paroxetine as radioligand
[3] = target: Sodium-dependent dopamine transporter (Rattus norvegicus, UniProt P23977); assay: Inhibitory activity against Dopamine transporter using 0.5 nM [3H]WIN-35428 as radioligand
Chain of Sodium-dependent dopamine transporter (P23977 whole entry): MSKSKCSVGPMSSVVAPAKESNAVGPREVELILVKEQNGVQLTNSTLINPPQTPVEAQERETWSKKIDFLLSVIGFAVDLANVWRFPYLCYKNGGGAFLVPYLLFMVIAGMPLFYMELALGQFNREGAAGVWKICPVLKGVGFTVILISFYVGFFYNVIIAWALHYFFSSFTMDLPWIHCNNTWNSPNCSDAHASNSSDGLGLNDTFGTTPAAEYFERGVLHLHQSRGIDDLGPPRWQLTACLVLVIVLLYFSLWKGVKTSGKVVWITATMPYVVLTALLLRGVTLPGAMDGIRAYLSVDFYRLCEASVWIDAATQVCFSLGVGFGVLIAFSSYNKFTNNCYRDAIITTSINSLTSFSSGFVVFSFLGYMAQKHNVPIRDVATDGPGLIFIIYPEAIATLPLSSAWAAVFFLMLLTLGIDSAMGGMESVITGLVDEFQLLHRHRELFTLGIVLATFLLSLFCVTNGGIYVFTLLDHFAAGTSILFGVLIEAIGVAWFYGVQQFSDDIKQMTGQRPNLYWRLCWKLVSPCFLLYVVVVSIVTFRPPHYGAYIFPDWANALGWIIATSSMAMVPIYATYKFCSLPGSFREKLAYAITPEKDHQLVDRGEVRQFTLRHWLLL

Chain of Norepinephrine transporter (Q9WTR4 whole entry): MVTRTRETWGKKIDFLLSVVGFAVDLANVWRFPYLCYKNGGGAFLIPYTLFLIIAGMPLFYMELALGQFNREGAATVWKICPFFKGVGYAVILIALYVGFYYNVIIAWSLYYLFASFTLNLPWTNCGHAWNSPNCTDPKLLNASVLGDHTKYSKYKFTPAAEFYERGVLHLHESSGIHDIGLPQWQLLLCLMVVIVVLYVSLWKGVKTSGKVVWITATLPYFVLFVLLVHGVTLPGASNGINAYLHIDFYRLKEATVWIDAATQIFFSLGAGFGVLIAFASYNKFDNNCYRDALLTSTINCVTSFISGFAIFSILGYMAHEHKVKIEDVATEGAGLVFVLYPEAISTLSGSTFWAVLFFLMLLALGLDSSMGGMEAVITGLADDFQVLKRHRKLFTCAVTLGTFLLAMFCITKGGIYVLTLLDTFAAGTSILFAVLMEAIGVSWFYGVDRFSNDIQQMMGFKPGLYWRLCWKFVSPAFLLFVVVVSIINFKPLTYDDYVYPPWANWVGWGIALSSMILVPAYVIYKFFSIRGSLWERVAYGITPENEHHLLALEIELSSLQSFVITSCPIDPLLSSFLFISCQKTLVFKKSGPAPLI
Chain of Sodium-dependent serotonin transporter (P31652 whole entry): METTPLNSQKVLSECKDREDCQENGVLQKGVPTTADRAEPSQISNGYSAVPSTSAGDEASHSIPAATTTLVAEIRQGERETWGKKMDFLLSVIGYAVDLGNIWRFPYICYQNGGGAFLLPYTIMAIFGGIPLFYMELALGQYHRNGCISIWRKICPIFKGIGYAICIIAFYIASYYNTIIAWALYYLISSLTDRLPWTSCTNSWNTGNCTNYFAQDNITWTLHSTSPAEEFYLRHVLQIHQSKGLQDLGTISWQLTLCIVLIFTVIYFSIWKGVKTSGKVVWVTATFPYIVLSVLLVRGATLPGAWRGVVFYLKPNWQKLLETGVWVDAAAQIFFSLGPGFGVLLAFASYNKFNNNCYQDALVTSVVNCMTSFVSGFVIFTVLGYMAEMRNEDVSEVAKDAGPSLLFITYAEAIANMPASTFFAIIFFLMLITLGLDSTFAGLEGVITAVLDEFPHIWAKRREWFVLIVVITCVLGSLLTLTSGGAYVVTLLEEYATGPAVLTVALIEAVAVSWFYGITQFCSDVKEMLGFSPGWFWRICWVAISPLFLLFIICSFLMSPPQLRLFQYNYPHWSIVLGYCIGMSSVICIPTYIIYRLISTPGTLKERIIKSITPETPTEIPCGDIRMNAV

SMILES | IC50 [1] [µM] | IC50 [2] [µM] | IC50 [3] [µM]
CN1[C@@H]2CC[C@H]1[C@H](c1ccccc1)[C@H](c1ccccc1)C2 (racemic) | 2.77 | 18.6 | 
CN1[C@@H]2CC[C@H]1[C@@H](c1ccccc1)[C@@H](c1ccccc1)C2 (racemic) | 2.67 | 34.7 | 0.028
CN1C2CCC1C(c1ccccc1)=C(c1ccccc1)C2 (racemic) | 21.4 | 47.8 | 0.55
CN1[C@@H]2CC[C@@H]1C(O)(c1ccccc1)C(c1ccccc1)C2 (mixture of isomers) | > 175 | 37.2 | 2.86

From ChEMBL document CHEMBL1129994, “Synthesis and transporter binding properties of 2,3-diphenyltropane stereoisomers. Comparison to 3beta-phenyltropane-2beta-carboxylic acid esters” (J Med Chem, 1997)
